Source: patent US12421210B2, “Fused bicyclic heterocycles as therapeutic agents” (NEW YORK UNIVERSITY, priority 2018, dated 2025)

Each compound was assayed against human NAMPT enzyme (His-hNAMPT) (Homo sapiens (Human), UniProt P43490) (assay: NAMPT enzymatic inhibition assay (fluorescence, NADH product)). Details: [BPS]; read-out: NAMPT IC50 (μM) [BPS].
Type: biochemical
Procedure: The compounds were then diluted 20 fold in an intermediate dilution to 5% DMSO and water. Finally 10 μL of each compound was added to the assay plate, in duplicate, with highest concentration at 30 μM and the lowest at 0.001 μM in a final volume of 50 μL and 1% DMSO concentration. Each assay also tested, in parallel, two reference compounds, FK866 and GMX1778, with highest concentration at 10 μM and lowest at 0.0003 μM. 200 ng of human NAMPT enzyme (His-hNAMPT obtained from E. coli expression system) diluted in […] (tris-buffered saline-Polysorbate 20) 1× was added to each well in a volume of 10 μL and the compounds were incubated with the enzyme at room temperature for 20 minutes. After the incubation, 30 μL of master mixture were added to each well. The master mixture contained: 50 mM Tris-HCl, pH 8.0, 12.5 mM MgCl2, 20 μM nicotinamide, 40 μM phosphoribosyl pyrophosphate (PRPP), 20 μM adenosine triphosphate (ATP), 30 μg/mL of alcohol dehydrogenase, 10 μg/mL of NMNAT, 1.5% alcohol, 1 mM dithiothreitol (DTT), 0.02% bovine serum albumin (BSA), 0.01% Tween 20. The reaction was performed at 30° C. for 60 minutes. Fluorescence intensity was measured at an excitation of 340 nm and an emission of 460 nm using a Tecan Infinite M1000 microplate reader. The fluorescence values indicated increase of NADH product.
Enzyme activity assay was performed in duplicate at each concentration. The fluorescence data was analyzed and compared. In the absence of the compound, the intensity (Ce) in each data set was defined as 100% activity. In the absence of enzyme, the intensity (C0) in each data set was defined as 0% activity. The percent activity in the presence of each compound was calculated according to the following equation: % activity=(C−C0)/(Ce−C0), where C is the fluorescence in the presence of the compound.
The % activity vs. compound concentrations were then plotted using non-linear regression analysis of Sigmoidal dose-response curve generated with the equation Y=B+(T−B)/1+10^((Log EC50-X)×Hill Slope), where Y is percent activity, B is minimum percent activity, T is maximum percent activity, X is logarithm of compound and Hill Slope=slope factor or Hill coefficient.

human NAMPT enzyme (His-hNAMPT), sequence (P43490 whole entry): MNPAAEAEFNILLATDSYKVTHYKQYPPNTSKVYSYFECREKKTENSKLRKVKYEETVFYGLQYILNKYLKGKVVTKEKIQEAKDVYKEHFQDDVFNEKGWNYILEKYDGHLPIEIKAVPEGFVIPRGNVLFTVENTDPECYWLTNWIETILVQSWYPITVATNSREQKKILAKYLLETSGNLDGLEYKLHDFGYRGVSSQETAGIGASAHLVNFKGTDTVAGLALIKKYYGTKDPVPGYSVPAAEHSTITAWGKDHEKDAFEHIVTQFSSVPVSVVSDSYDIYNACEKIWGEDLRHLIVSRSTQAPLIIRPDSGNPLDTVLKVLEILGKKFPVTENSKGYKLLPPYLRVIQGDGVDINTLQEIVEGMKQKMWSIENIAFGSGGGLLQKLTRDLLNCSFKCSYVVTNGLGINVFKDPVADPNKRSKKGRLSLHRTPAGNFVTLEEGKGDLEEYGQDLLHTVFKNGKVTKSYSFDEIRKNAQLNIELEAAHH

Row | SMILES | IC50
1 | CC(C)(C)OC(=O)N1C[C@@H]2[C@@H](CCNC(=NC#N)Nc3ccncc3)[C@@H]2C1 [Example 18, (1R,5S,6s)-tert-butyl 6-(2-((E)-2-cyano-3-(pyridin-4-yl)guanidino)ethyl)-3-azabicyclo[3.1.0]hexane-3-carboxylate] | 0.01 to 0.49 µM
2 | CC(C)(C)OC(=O)N1C[C@@H]2[C@@H](CCNC(=O)[C@H]3C[C@@H]3c3cccnc3)[C@@H]2C1 [Example 10, (1R,5S,6s)-tert-butyl 6-(2-((1R,2R)-2-(pyridin-3-yl)cyclopropanecarbox-amido)ethyl)-3-azabicyclo[3.1.0]hexane-3-carboxylate] | 0.01 to 0.49 µM
3 | O=C(NCC[C@@H]1[C@H]2CN(C(=O)CC3CCOCC3)C[C@@H]12)c1ccc2nccn2c1 [Example 101, N-(2-((1R,5S,6s)-3-(2-(tetrahydro-2H-pyran-4-yl)acetyl)-3-azabicyclo[3.1.0]hexan-6-yl)ethyl)imidazo[1,2-a]pyridine-6-carboxamide] | 0.01 to 0.49 µM
4 | Nc1ccc(/C=C/C(=O)NCC[C@@H]2[C@H]3CN(C(=O)N4CCCC4)C[C@@H]23)cn1 [Example 39, (E)-3-(6-aminopyridin-3-yl)-N-(2-((1R,5S,6s)-3-(pyrrolidine-1-carbonyl)-3-azabicyclo[3.1.0]hexan-6-yl)ethyl)acrylamide] | 0.01 to 0.49 µM
5 | CC(C)(C)OC(=O)N1C[C@H]2C[C@@H](CCNC(=O)COc3cccnc3)C[C@H]2C1 [Example 275, (3aR,5r,6aS)-tert-butyl 5-(2-(2-(pyridin-3-yloxy)acetamido)ethyl)hexahydrocyclopenta[c]pyrrole-2(1H)-carboxylate] | 0.5 to 0.99 µM
6 | O=C(NCC[C@@H]1[C@H]2CN(C(=O)CC3CCOCC3)C[C@@H]12)c1cc2cnccc2[nH]1 [Example 112, N-(2-((1R,5S,6s)-3-(2-(tetrahydro-2H-pyran-4-yl)acetyl)-3-azabicyclo[3.1.0]hexan-6-yl)ethyl)-1H-pyrrolo[3,2-c]pyridine-2-carboxamide] | 0.01 to 0.49 µM
7 | CC(C)(C)OC(=O)N1C[C@@H]2[C@@H](CCNC(=O)N3Cc4ccncc4C3)[C@@H]2C1 [Example 20, (1R,5S,6s)-tert-butyl 6-(2-(2,3-dihydro-1H-pyrrolo[3,4-c]pyridine-2-carboxamido)ethyl)-3-azabicyclo[3.1.0]hexane-3-carboxylate] | 0.01 to 0.49 µM
8 | CC(C)(C)NC(=O)N1C[C@@H]2[C@@H](CCNC(=O)c3cc4cnccc4[nH]3)[C@@H]2C1 [Example 82, N(2-((1R,5S,6s)-3-(tert-butylcarbamoyl)-3-azabicyclo[3.1.0]hexan-6-yl)ethyl)-1H-pyrrolo[3,2-c]pyridine-2-carboxamide] | 0.01 to 0.49 µM
9 | Cc1ccccc1N1C[C@@H]2[C@@H](CCNC(=O)/C=C/c3cccnc3)[C@@H]2C1 [Example 132, (E)-3-(pyridin-3-yl)-N-(2-((1R,5S,6s)-3-(o-tolyl)-3-azabicyclo[3.1.0]hexan-6-yl)ethyl)acrylamide] | 0.01 to 0.49 µM
10 | CC1(OC(=O)N2C[C@@H]3[C@@H](CCNC(=O)c4ccc5nc(N)sc5c4)[C@@H]3C2)COC1 [Example 49, (1R,5S,6s)-3-methyloxetan-3-yl 6-(2-(2-aminobenzo[d]thiazole-6-carboxamido)ethyl)-3-azabicyclo[3.1.0]hexane-3-carboxylate] | 1 to 29 µM
11 | CC1(OC(=O)N2C[C@@H]3[C@@H](CCNC(=O)N4Cc5ccccc5C4)[C@@H]3C2)COC1 [Example 230, (1R,5S,6s)-3-methyloxetan-3-yl 6-(2-(isoindoline-2-carboxamido)ethyl)-3-azabicyclo[3.1.0]hexane-3-carboxylate] | 0.01 to 0.49 µM
12 | O=C(/C=C/c1cccnc1)NCC[C@@H]1[C@H]2CN(c3cccc4ccccc34)C[C@@H]12 [Example 126, (E)-N-(2-((1R,5S,6s)-3-(naphthalen-1-yl)-3-azabicyclo[3.1.0]hexan-6-yl)ethyl)-3-(pyridin-3-yl)acrylamide] | 0.01 to 0.49 µM
13 | O=C(NCC[C@@H]1[C@H]2CN(c3cccc4ccccc34)C[C@@H]12)c1cc2ccncc2o1 [Example 121, N-(2-((1R,5S,6s)-3-(naphthalen-1-yl)-3-azabicyclo[3.1.0]hexan-6-yl)ethyl)furo[2,3-c]pyridine-2-carboxamide] | 0.01 to 0.49 µM
14 | CC(C)(C)OC(=O)N1C[C@@H]2[C@@H](CNC(=O)/C=C/c3cccnc3)[C@@H]2C1 [Example 232, (1R,5S,6s)-tert-butyl 6-(((E)-3-(pyridin-3-yl)acrylamido)methyl)-3-azabicyclo[3.1.0]hexane-3-carboxylate] | 0.01 to 0.49 µM
15 | O=C(NCC[C@@H]1[C@H]2CN(C(=O)OC3CCOCC3)C[C@@H]12)c1cc2ccncc2o1 [Example 61, (1R,5S,6s)-3-tetrahydro-2H-pyran-4-yl 6-(2-(furo[2,3-c]pyridine-2-carboxamido)ethyl)-3-azabicyclo[3.1.0]hexane-3-carboxylate] | 0.01 to 0.49 µM

Same assay, conditions: [HDB]; read-out: NAMPT IC50 (μM) [HDB]

Row | SMILES | IC50
16 | CC(c1ccccn1)N1C[C@@H]2[C@@H](CCNC(=O)/C=C/c3cccnc3)[C@@H]2C1 (stereo partly drawn) [Example 321, (E)-N-(2-((1R,5S,6s)-3-(1-(pyridin-2-yl)ethyl)-3-azabicyclo[3.1.0]hexan-6-yl)ethyl)-3-(pyridin-3-yl)acrylamide] | 0.01 to 0.49 µM
17 | O=C(NCC[C@H]1[C@@H]2CN(c3ccc(F)cc3)C(=O)[C@H]12)c1cc(-c2cccnc2)on1 (stereo in doubt) [Example 265, N-(2-((1R,5,6S)-3-(4-fluorophenyl)-2-oxo-3-azabicyclo[3.1.0]hexan-6-yl)ethyl)-5-(pyridin-3-yl)isoxazole-3-carboxamide and N-(2-((1S,5R,6R)-3-(4-fluorophenyl)-2-oxo-3-azabicyclo[3.1.0]hexan-6-yl)ethyl)-5-(pyridin-3-yl)isoxazole-3-carboxamide] | 0.01 to 0.49 µM
18 | O=C(/C=C/c1cccnc1)NCC[C@@H]1[C@H]2CN(c3nc(C(F)(F)F)cs3)C[C@@H]12 [Example 175, (E)-3-(pyridin-3-yl)-N-(2-((1R,5S,6s)-3-(4-(trifluoromethyl)thiazol-2-yl)-3-azabicyclo[3.1.0]hexan-6-yl)ethyl)acrylamide] | 0.01 to 0.49 µM
19 | O=C(NCC[C@@H]1[C@H]2CN(c3ccccc3)C[C@@H]12)c1cc2ccncc2o1 [Example 193, N-(2-((1R,5S,6s)-3-phenyl-3-azabicyclo[3.1.0]hexan-6-yl)ethyl)furo[2,3-c]pyridine-2-carboxamide] | < 0.01 µM
20 | O=C(CCc1ccncc1)NCC[C@@H]1[C@H]2CN(c3nc(Cl)ncc3F)C[C@@H]12 [Example 215, N-(2-((1R,5S,6s)-3-(2-chloro-5-fluoropyrimidin-4-yl)-3-azabicyclo[3.1.0]hexan-6-yl)ethyl)-3-(pyridin-4-yl)propanamide] | 1 to 29 µM
21 | O=C(/C=C/c1cccnc1)NCC[C@@H]1[C@H]2CN(c3ncc(F)c(Cl)n3)C[C@@H]12 [Example 188, (E)-N-(2-((1R,5S,6s)-3-(4-chloro-5-fluoropyrimidin-2-yl)-3-azabicyclo[3.1.0]hexan-6-yl)ethyl)-3-(pyridin-3-yl)acrylamide] | < 0.01 µM
22 | O=C(/C=C/c1cccnc1)NCC[C@@H]1[C@H]2CN(c3ccccc3Cl)C[C@@H]12 [Example 144, (E)-N-(2-((1R,5S,6s)-3-(2-chlorphenyl)-3-azabicyclo[3.1.0]hexan-6-yl)ethyl)-3-(pyridin-3-yl)acrylamide] | 0.01 to 0.49 µM
23 | O=C(/C=C/c1cccnc1)NCC[C@@]1(F)[C@@H]2CN(c3nc(Cl)ncc3F)C[C@@H]21 [Example 292, (E)-N-(2-((1R,5S,6r)-3-(2-chloro-5-fluoropyrimidin-4-yl)-6-fluoro-3-azabicyclo[3.1.0]hexan-6-yl)ethyl)-3-(pyridin-3-yl)acrylamide] | 0.01 to 0.49 µM
